Experimental data taken from US6469142B1, “Human N-methyl-D-aspartate receptor subunits, nucleic acids encoding same and uses therefor” (Merck & Co., Inc., priority 1993, dated 2002).

Legend:
[1] = system: recombinant human NMDA receptors; test: Antagonist block of agonist-induced currents in oocytes injected with NMDA receptor subunit transcripts (summary of Table 1); type: cell-based; settings: 0.1-1.0 mM MgCl2 or 1 μM MK801
Method: (§1) Xenopus oocytes were injected with in vitro transcripts prepared from constructs containing DNA encoding human NMDA receptor NMDAR1 and NMDAR2 subunits. Electrophysiological measurements of the oocyte transmembrane currents were made using the two-electrode voltage clamp technique (see e.g., Stuhmer (1992) Meth. Enzymol. 207:319-339).
Xenopus oocytes were injected with 12.5-50 ng of one or more NMDA receptor subunit transcripts per oocyte. The preparation and injection of oocytes were carried out as described by Dascal [(1987) Crit. Rev. Biochem. 22:317-387]. Two-to-six days following mRNA injection, the oocytes were examined using the two-electrode voltage clamp technique. The cells were bathed in Ringer's solution (115 mM NaCl, 2.5 mM KCl, 1.8 mM CaCl2, 10 mM HEPES, pH 7.3), and the membrane potential was clamped at −80 to −100 mV. Drugs were applied by pipetting 6.0 μl aliquots of drug-containing solution directly into the bath, or by using gravity-feed into a Warner Instruments chamber (volume=110 μl) at a flow rate of 8 ml/min. The data were sampled at 2-5 Hz with a Labmaster data acquisition board in a PC-386 using AXOTAPE version 1.2 (Axon Instruments, Foster City, Calif.) software. The data were exported to a laser printer or plotted using Sigmaplot version 5.0. […]

NMDA receptors = test: [3H]-CGP39653 binding to rat buffy coat homogenate; settings: 150 μg rat buffy coat homogenate; 60 min at 4° C.; read-out: Kd (Scatchard analysis, single class of binding sites)
Method: 21:161]. […] The wash step is repeated once more. The final suspension is divided into aliquots, centrifuged.
The binding of [^3H]-CGP39653 to rat brain membranes is carried out as described by Sills et al. [(1991) Eur. J. Pharmacol. 192:19]. The buffy coat membrane pellet is resuspended in 50 volumes of 5 mM Tris-HCl containing 10 mM EDTA, pH 7.7, and incubated for 10 min. at 37° C. The supernatant is centrifuged at 48,000×g for 10 min. at 4° C. The wash step is repeated once and the pellet is resuspended in 10 ml of 5 mM Tris-HCl containing 10 mM EDTA, pH 7.7. […] Unbound radioactivity is removed with two washes of 3 ml each of ice-cold buffer.
Saturation analysis of [^3H]-CGP39653 binding was carried out by incubating 150 μg of rat buffy coat homogenate with increasing concentrations of [^3H]-CGP39653 for 60 min at 4° C.

[2] = biological target: T1, human NMDAR1A + NMDAR2A + NMDAR2C (Homo sapiens, UniProt Q05586+Q12879+Q14957); test: cell-based
T1 construct: other: 50 ng each transcript; co-applied with 100 μM NMDA; mean±S.D. of
Method: as §1
(§2) Recombinant capped transcripts of NMDA receptor subunit cDNAs contained in constructs NMDAR1A, NMDAR1-I63, NMDAR1-I63-Δ204, NMDAR1-Δ1087, NMDAR1-Δ363, and pCMV-26-NotI-24 were synthesized from linearized plasmids using the mCAP RNA Capping Kit (Cat. #200350, Stratagene, Inc., La Jolla, Calif.). For experiments in which NMDAR2A or NMDAR2B and NMDAR1 or NMDAR1-I63 transcripts were co-injected into Xenopus oocytes, the transcripts were synthesized from linearized constructs NMDAR1A, NMDAR1-I63, pCMV-hNMDAR2A-3(53), pCMV-26-NotI-24 and pBS-hNMDAR2B using mMessage mMachine (Ambion, catalog #1344, Austin, Tex.). The mass of each synthesized transcript was determined by UV absorbance and the integrity of each transcript was determined by electrophoresis through an agarose gel.
(§3) Xenopus oocytes were injected with 12.5-50 ng of one or more NMDA receptor subunit transcripts per oocyte. The preparation and injection of oocytes were carried out as described by Dascal [(1987) Crit. Rev. Biochem. 22:317-387]. […]

human NMDAR1A + NMDAR2A = biological target: T2, human NMDAR1A + NMDAR2A (Homo sapiens, UniProt Q05586+Q12879); test: Two-electrode voltage clamp of Xenopus oocytes co-injected with NMDAR1A and pCMV-hNMDAR2A-3(53) transcripts; type: cell-based
T2 construct: to generate the full-length construct NMDAR1A; Full-length DNAs encoding human NMDA receptor subunits have been inserted into vectors pcDNA1, pMMTVT7(+), pCMV-T7-2 and pCMV-T7-3; expressed in transfected cells; host or cells: Xenopus oocytes co-injected with in vitro transcripts
T2 sequence (Q12879 23-1464, other chains not shown): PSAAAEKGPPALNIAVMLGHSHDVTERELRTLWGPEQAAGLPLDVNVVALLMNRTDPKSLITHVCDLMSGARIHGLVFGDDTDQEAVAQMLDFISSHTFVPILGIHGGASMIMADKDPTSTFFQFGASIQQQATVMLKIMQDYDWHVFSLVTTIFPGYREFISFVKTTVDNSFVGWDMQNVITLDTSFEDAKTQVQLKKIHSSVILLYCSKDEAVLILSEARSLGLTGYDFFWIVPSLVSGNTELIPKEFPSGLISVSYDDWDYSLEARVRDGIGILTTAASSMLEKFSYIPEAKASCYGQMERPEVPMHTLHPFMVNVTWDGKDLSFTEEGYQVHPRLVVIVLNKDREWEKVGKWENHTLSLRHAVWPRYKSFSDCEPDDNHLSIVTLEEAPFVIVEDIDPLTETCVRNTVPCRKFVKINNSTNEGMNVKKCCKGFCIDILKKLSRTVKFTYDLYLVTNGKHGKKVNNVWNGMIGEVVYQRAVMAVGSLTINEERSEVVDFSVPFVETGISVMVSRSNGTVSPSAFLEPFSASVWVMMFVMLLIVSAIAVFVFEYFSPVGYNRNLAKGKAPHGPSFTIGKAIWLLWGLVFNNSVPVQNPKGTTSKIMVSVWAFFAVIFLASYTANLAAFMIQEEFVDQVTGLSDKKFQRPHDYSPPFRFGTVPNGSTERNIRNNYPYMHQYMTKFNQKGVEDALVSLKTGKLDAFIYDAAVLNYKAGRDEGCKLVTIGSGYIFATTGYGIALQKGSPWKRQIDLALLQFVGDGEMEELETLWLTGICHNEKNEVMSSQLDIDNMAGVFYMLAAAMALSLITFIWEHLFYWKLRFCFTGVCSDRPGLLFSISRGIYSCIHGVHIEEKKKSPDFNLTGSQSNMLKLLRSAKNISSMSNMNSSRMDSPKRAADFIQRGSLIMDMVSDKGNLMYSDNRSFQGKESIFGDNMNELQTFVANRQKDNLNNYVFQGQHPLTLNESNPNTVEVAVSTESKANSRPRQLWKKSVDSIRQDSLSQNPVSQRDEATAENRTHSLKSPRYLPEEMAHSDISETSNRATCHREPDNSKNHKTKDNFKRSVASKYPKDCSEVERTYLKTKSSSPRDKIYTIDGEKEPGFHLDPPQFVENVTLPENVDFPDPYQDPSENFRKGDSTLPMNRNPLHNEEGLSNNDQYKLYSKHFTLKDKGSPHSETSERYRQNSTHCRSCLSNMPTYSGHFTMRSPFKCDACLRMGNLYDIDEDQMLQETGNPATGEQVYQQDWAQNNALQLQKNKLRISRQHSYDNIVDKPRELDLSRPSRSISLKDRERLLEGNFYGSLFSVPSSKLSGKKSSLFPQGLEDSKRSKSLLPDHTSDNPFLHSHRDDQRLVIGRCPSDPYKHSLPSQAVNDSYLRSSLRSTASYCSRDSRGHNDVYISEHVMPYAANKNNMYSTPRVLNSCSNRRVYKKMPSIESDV
Method: as §1, §2, §3

Structure (SMILES): C[C@]12N[C@H](Cc3ccccc31)c1ccccc12 [MK801]
- Block of NMDA agonist-induced currents, in general [1]: blocked

Structure (SMILES): [Cl-].[Cl-].[Mg+2] [MgCl2]
- Block of NMDA agonist-induced currents, in general [1]: blocked

Structure (SMILES): CCCC(=CC(N)C(=O)O)CP(=O)(O)O (centres unmarked) [[^3H]-CGP39653]
- Kd (NMDA receptors): 0.0123 ± 0.00012 µM

Structure (SMILES): NCC(=O)O [glycine]
- EC50 [2]: 0.87 ± 0.24 µM
- EC50 (human NMDAR1A + NMDAR2A): 1.9 ± 0.26 µM
